Reference: patent US20100120050A1, “Biomarkers For Assessing Altherosclerotic Potential” (ENTELOS, INC., priority 2008, published 2010)
Like-named read-outs stand apart in the source and are kept apart here.

System: hepatic genes (liver)
Procedure: While the molecular target for PPARγ is not in the liver, it represents the effects of changes in metabolism of the whole animal, which impact liver lipoprotein production and clearance.
Male Sprague-Dawley (Crl:CD® (SD)(IGS)BR) rats (Charles River Laboratories, Portage, Mich.), weight matched, 7 to 8 weeks of age, were housed individually in hanging, stainless steel, wire-bottom cages in a temperature (66-77° F.), light (12-hour dark/light cycle) and humidity (30-70%) controlled room. Water and rodent diet were available ad libitum throughout the 5 day acclimatization period and during the 5 day treatment period. Housing and treatment of the animals were in accordance with regulations outlined in the USDA Animal Welfare Act (9 CFR Parts 1, 2 and 3).
Rats (three per group) were dosed daily at either a low or high dose. […] Animals were necropsied on days 0.25, 1, 3, and 5. Up to 13 tissues (e.g., liver, kidney, heart, bone marrow, blood, spleen, brain, intestine, glandular and nonglandular stomach, lung, muscle, and gonads) were collected for histopathological evaluation and microarray expression profiling on the Affymetrix Rat Whole Genome RG230 v2 platform. In addition, a clinical pathology panel consisting of 37 clinical chemistry and hematology parameters was generated from blood samples collected on days 3 and 5.
Gene expression profiling, data processing and quality control were performed using protocols recommended by. Briefly, liver samples from 3 rats were chosen at random from each treatment and control group for each timepoint for expression profile analysis on the Affymetrix Rat Whole Genome RG230 v2 microarray (Affymetrix, Santa Clara, Calif.). Log transformed signal data for all probes were array-wise normalized using the Affymetrix MASS algorithm. Expression log ratios of base 10 (log(10) ratios) were computed as the difference between the logs of the averaged normalized experimental signals and the averaged normalized time-matched vehicle control signals for each gene.

For `CCc1ccc(CCOc2ccc(CC3SC(=O)NC3=O)cc2)nc1` (stereo not drawn) [pioglitazone], the “Average Log (10) Ratio: L-3-hydroxyacyl-Coenzyme A dehydrogenase, short chain” value (rat liver, probe AA891362, Rn.92789, oral gavage, experiments of Table 3) was 0.375, the “Average Log (10) Ratio: acetyl-coenzyme A acetyltransferase 1” value (rat liver, probe AA899304, Rn.4054, oral gavage, experiments of Table 3) was 0.171 and the “Average Log (10) Ratio: transferrin” value (rat liver, probe AA945548, Rn.91296, oral gavage, experiments of Table 3) was −0.222. For the same molecule, the “Average Log (10) Ratio: sterol regulatory element binding factor 1” value (rat liver, probe AF286470, Rn.801, oral gavage, experiments of Table 3) was −0.118, the “Average Log (10) Ratio: CCAAT/enhancer binding protein (C/EBP), delta” value (rat liver, probe AI176576, Rn.6975, oral gavage, experiments of Table 3) was −0.035 and the “Average Log (10) Ratio: fatty acid synthase” value (rat liver, probe AI179334, Rn.9486, oral gavage, experiments of Table 3) was −0.411. The “Average Log (10) Ratio: peroxisome proliferator activated receptor alpha” value (rat liver, probe AI385341, Rn.9753, oral gavage, experiments of Table 3) was 0.247, the “Average Log (10) Ratio: perilipin” value (rat liver, probe AI406700, Rn.9737, oral gavage, experiments of Table 3) was −0.187 and the “Average Log (10) Ratio: monoglyceride lipase” value (rat liver, probe AI713204, Rn.40396, oral gavage, experiments of Table 3) was −0.118. The “Average Log (10) Ratio: phosphatidylinositol 3-kinase, C2 domain containing, gamma polypeptide” value (rat liver, probe AW526669, Rn.169550, oral gavage, experiments of Table 3) was −0.240, the “Average Log (10) Ratio: monoglyceride lipase” value (rat liver, probe AY081195, Rn.40396, oral gavage, experiments of Table 3) was −0.131 and the “Average Log (10) Ratio: mitogen-activated protein kinase 8” value (rat liver, probe BE105603, Rn.4090, oral gavage, experiments of Table 3) was 0.332. The “Average Log (10) Ratio: ELOVL family member 6, elongation of long chain fatty acids (yeast)” value (rat liver, probe BF396857, Rn.46942, oral gavage, experiments of Table 3) was −0.225, the “Average Log (10) Ratio: sterol regulatory element binding factor 1” value (rat liver, probe BF398848, Rn.801, oral gavage, experiments of Table 3) was −0.092 and the “Average Log (10) Ratio: RIKEN cDNA 1500016L11 (DBSS)” value (rat liver, probe BF407188, Rn.15135, oral gavage, experiments of Table 3) was −0.149. For the same molecule, the “Average Log (10) Ratio: monoglyceride lipase” value (rat liver, probe BG372713, Rn.40396, oral gavage, experiments of Table 3) was −0.110, the “Average Log (10) Ratio: Pyruvate carboxylase” value (rat liver, probe BG376902, Rn.11094, oral gavage, experiments of Table 3) was 0.300 and the “Average Log (10) Ratio: acetyl CoA transferase-like (DBSS)” value (rat liver, probe BG377636, Rn.98393, oral gavage, experiments of Table 3) was 0.071. The “Average Log (10) Ratio: phospholipid transfer protein (DBSS)” value (rat liver, probe BI278687, Rn.117434, oral gavage, experiments of Table 3) was −0.045, the “Average Log (10) Ratio: guanine nucleotide binding protein, alpha stimulating, olfactory type” value (rat liver, probe BI281656, Rn.39132, oral gavage, experiments of Table 3) was −0.386 and the “Average Log (10) Ratio: acetyl-Coenzyme A acyltransferase 2 (mitochondrial 3-oxoacyl-Coenzyme A thiolase)” value (rat liver, probe BI282488, Rn.3786, oral gavage, experiments of Table 3) was 0.046. For the same molecule, the “Average Log (10) Ratio: glycerol-3-phosphate acyltransferase, mitochondrial” value (rat liver, probe BI288209, Rn.44456, oral gavage, experiments of Table 3) was −0.319, the “Average Log (10) Ratio: elongation of very long chain fatty acids (FEN1/Elo2, SUR4/Elo3, yeast)-like 3 (DBSS)” value (rat liver, probe BI292438, Rn.79322, oral gavage, experiments of Table 3) was 0.334 and the “Average Log (10) Ratio: NCI_CGAP_Emb2 cDNA clone IMAGE: 4176354” value (rat liver, probe BI850137, Rn.83595, oral gavage, experiments of Table 3) was 0.315. For the same molecule, the “Average Log (10) Ratio: pyruvate dehydrogenase kinase, isoenzyme 3 (mapped)” value (rat liver, probe BM389330, Rn.18101, oral gavage, experiments of Table 3) was −0.142, the “Average Log (10) Ratio: 3-hydroxy-3-methylglutaryl-Coenzyme A reductase” value (rat liver, probe BM390399, Rn.9437, oral gavage, experiments of Table 3) was −0.018 and the “Average Log (10) Ratio: sulfotransferase family 2A, dehydroepiandrosterone (DHEA)-preferring, member 1” value (rat liver, probe D14989, Rn.91378, oral gavage, experiments of Table 3) was 0.112. The “Average Log (10) Ratio: apolipoprotein E” value (rat liver, probe J02582, Rn.32351, oral gavage, experiments of Table 3) was 0.410, the “Average Log (10) Ratio: stearoyl-Coenzyme A desaturase 1” value (rat liver, probe J02585, Rn.1023, oral gavage, experiments of Table 3) was 0.056 and the “Average Log (10) Ratio: apolipoprotein B” value (rat liver, probe M14952, Rn.33815, oral gavage, experiments of Table 3) was −0.303. For the same molecule, the “Average Log (10) Ratio: NCI_CGAP_Emb2 cDNA clone IMAGE: 4176354” value (rat liver, probe M15114, Rn.83595, oral gavage, experiments of Table 3) was 0.052, the “Average Log (10) Ratio: malic enzyme 1” value (rat liver, probe M30596, Rn.161920, oral gavage, experiments of Table 3) was −0.083 and the “Average Log (10) Ratio: glucokinase” value (rat liver, probe NM_012565, Rn.10447, oral gavage, experiments of Table 3) was −0.220. The “Average Log (10) Ratio: serine (or cysteine) peptidase inhibitor, clade E, member 1” value (rat liver, probe NM_012620, Rn.29367, oral gavage, experiments of Table 3) was 0.049, the “Average Log (10) Ratio: adrenergic receptor, beta 1” value (rat liver, probe NM_012701, Rn.87064, oral gavage, experiments of Table 3) was 0.205 and the “Average Log (10) Ratio: hexokinase 2” value (rat liver, probe NM_012735, Rn.91375, oral gavage, experiments of Table 3) was 0.300. The “Average Log (10) Ratio: guanylate cyclase 1, soluble, beta 3” value (rat liver, probe NM_012769, Rn.87228, oral gavage, experiments of Table 3) was −0.120, the “Average Log (10) Ratio: guanylate cyclase 1, soluble, beta 2” value (rat liver, probe NM_012770, Rn.10933, oral gavage, experiments of Table 3) was −0.120 and the “Average Log (10) Ratio: mitogen activated protein kinase 10” value (rat liver, probe NM_012806, Rn.9911, oral gavage, experiments of Table 3) was 0.229. For the same molecule, the “Average Log (10) Ratio: carnitine palmitoyltransferase 2” value (rat liver, probe NM_012930, Rn.11389, oral gavage, experiments of Table 3) was 0.030, the “Average Log (10) Ratio: 3-hydroxy-3-methylglutaryl-Coenzyme A reductase” value (rat liver, probe NM_013134, Rn.9437, oral gavage, experiments of Table 3) was 0.086 and the “Average Log (10) Ratio: transforming growth factor, beta 3” value (rat liver, probe NM_013174, Rn.7018, oral gavage, experiments of Table 3) was −0.086. For the same molecule, the “Average Log (10) Ratio: carnitine palmitoyltransferase 1b, muscle” value (rat liver, probe NM_013200, Rn.6028, oral gavage, experiments of Table 3) was 0.125, the “Average Log (10) Ratio: solute carrier family 10, member 2” value (rat liver, probe NM_017222, Rn.85891, oral gavage, experiments of Table 3) was −0.206 and the “Average Log (10) Ratio: mitogen-activated protein kinase 9” value (rat liver, probe NM_017322, Rn.9910, oral gavage, experiments of Table 3) was −0.209. For the same molecule, the “Average Log (10) Ratio: acyl-Coenzyme A oxidase 1, palmitoyl” value (rat liver, probe NM_017340, Rn.31796, oral gavage, experiments of Table 3) was 0.165, the “Average Log (10) Ratio: transforming growth factor, beta 1” value (rat liver, probe NM_021578, Rn.40136, oral gavage, experiments of Table 3) was −0.047 and the “Average Log (10) Ratio: protein kinase, AMP-activated, beta 2 non-catalytic subunit” value (rat liver, probe NM_022627, Rn.15423, oral gavage, experiments of Table 3) was −0.432. For the same molecule, the “Average Log (10) Ratio: transforming growth factor, beta 2” value (rat liver, probe NM_031131, Rn.24539, oral gavage, experiments of Table 3) was −0.378, the “Average Log (10) Ratio: carnitine palmitoyltransferase 1a, liver” value (rat liver, probe NM_031559, Rn.2856, oral gavage, experiments of Table 3) was 0.341 and the “Average Log (10) Ratio: protein kinase, AMP-activated, beta 1 non-catalytic subunit” value (rat liver, probe NM_031976, Rn.3619, oral gavage, experiments of Table 3) was −0.188. For the same molecule, the “Average Log (10) Ratio: ATP-binding cassette, sub-family D (ALD), member 1 (DBSS)” value (rat liver, probe NM_033352, Rn.177278, oral gavage, experiments of Table 3) was 0.292, the “Average Log (10) Ratio: insulin-like growth factor binding protein, acid labile subunit” value (rat liver, probe NM_053329, Rn.164865, oral gavage, experiments of Table 3) was −0.263 and the “Average Log (10) Ratio: pyruvate dehydrogenase kinase, isoenzyme 4” value (rat liver, probe NM_053551, Rn.30070, oral gavage, experiments of Table 3) was −0.148. For the same molecule, the “Average Log (10) Ratio: phosphatidylinositol 3-kinase, C2 domain containing, gamma polypeptide” value (rat liver, probe NM_053923, Rn.169550, oral gavage, experiments of Table 3) was −0.055, the “Average Log (10) Ratio: pyruvate dehydrogenase E1 alpha 2” value (rat liver, probe NM_053994, Rn.11126, oral gavage, experiments of Table 3) was −0.171 and the “Average Log (10) Ratio: nuclear receptor subfamily 0, group B, member 2” value (rat liver, probe NM_057133, Rn.10712, oral gavage, experiments of Table 3) was 0.034. For the same molecule, the “Average Log (10) Ratio: hydroxyacyl-Coenzyme A dehydrogenase/3-ketoacyl-Coenzyme A thiolase/enoyl-Coenzyme A hydratase (trifunctional protein), beta subunit” value (rat liver, probe NM_133618, Rn.11253, oral gavage, experiments of Table 3) was 0.182, the “Average Log (10) Ratio: ELOVL family member 5, elongation of long chain fatty acids (yeast)” value (rat liver, probe NM_134382, Rn.4243, oral gavage, experiments of Table 3) was −0.191 and the “Average Log (10) Ratio: Glycerol-3-phosphate dehydrate dehydrogenase (mtGPDH) mRNA, 3′UTR” value (rat liver, probe U08027, Rn.89705, oral gavage, experiments of Table 3) was 0.026. The “Average Log (10) Ratio: glycerol-3-phosphate acyltransferase, mitochondrial” value (rat liver, probe U36771, Rn.44456, oral gavage, experiments of Table 3) was −0.239, the “Average Log (10) Ratio: Cytochrome P450, family 2, subfamily b, polypeptide 2” value (rat, in vivo, po) was 0.275 and the “Average Log (10) Ratio: cytochrome P450, family 2, subfamily b, polypeptide 13” value (rat, in vivo, po) was −0.015. For the same molecule, the “Average Log (10) Ratio: cytochrome P450, family 3, subfamily a, polypeptide 13” value (rat, in vivo, po) was −0.242, the “Average Log (10) Ratio: cytochrome P450, family 7, subfamily a, polypeptide 1” value (rat, in vivo, po) was 0.320 and the “Average Log (10) Ratio: cytochrome P450, family 8, subfamily b, polypeptide 1” value (rat, in vivo, po) was 0.351.
